Holding throughout (format): in vivo, human
Assay [1] in a line: Experiment 3: case report, levosimendan infusion added to diuretics in a person with dilating cardiomyopathy. The protocol:
Person was admitted to hospital due to worsened dyspnea. They suffered from idiopathic dilating cardiomyopathy and their left ventricular ejection fraction was 26%. They were treated with diuretics (furosemide and spironolactone) as well as perindopril, bisoprolol and digitalis without positive response for one week. Levosimendan infusion of 0.05 microg/kg/min was added. During the next 24 hours they urinated 3500 ml and during the next five days their weight decreased from 66.5 kg to 62.5 kg, although it had not changed at all before the infusion of levosimendan.

Assay [2] can be described thus: Experiment 1: case report, levosimendan infusion added to diuretics in a person with congestive heart failure. The settings on record: for daily urine volume: 850-1850 ml before start. The text has this: Person was admitted to hospital due to congestive heart failure. In cardiac echocardiography they had ejection fraction below 30%, moderate regurgitation of mitral valve and dilative cardiomyopathy. According to coronary angiography invasive procedures such as angioplasty or coronary by-pass surgery were not possible. During the first four days at hospital they received diuretics (furosemide and spironolactone) as well as lisinopril, bisoprolol, antibiotics and allopurinol without any positive response. Their dyspnea worsened and peripheral oedema increased. Levosimendan infusion was added with the dose of 0.05 microg/kg/min and was increased to 0.1 microg/kg/min after two hours, the infusion lasted 24 hours, no bolus infusion was used due to low blood pressure. During the next day patient told that they felt better and dyspnea and periphera oedema decreased. […] The daily urine volumes varied between 850 and 1850 ml before the start of levosimendan, and increased up to 6350 ml on the day they received levosimendan, and were 3800 ml on the day after levosimendan infusion, after that they went down to normal.

Assay [3] in a line: Experiment 2: case report, levosimendan infusion added to vasodilators and diuretics in a person with dyspnea and lung oedema. On the procedure:
Person was admitted to hospital due to severely worsened dyspnea. They suffered from coronary artery disease with no possibilities for re-vascularisation. They had ejection fraction below 35%, markedly elevated end-diastolic pressure and moderate mitral regurgitation. […] They were treated with positive pressure ventilation, vasodilators and diuretics for three days without positive response. Levosimendan fusion with a bolus and continuous infusion rate up to 0.2 microg/kg/min was added. The infusion lasted 24 hours. Before the infusion their daily urinary volumes varied between 2150 and 2730 ml. On the day levosimendan was started their urinary volume was 2650 and increased to 3855, 2890 and 2790 ml during the next consecutive days, and their fluid balance was 8500 ml negative during the four next days after the infusion of levosimendan.

For the molecule `C[C@@H]1CC(=O)NN=C1c1ccc(NN=C(C#N)C#N)cc1` [levosimendan, (−)-enantiomer of [[4-(1,4,5,6-tetrahydro-4-methyl-6-oxo-3-pyridazinyl)phenyl]hydrazono]propanedinitrile], in assay [1] (after the next five days, decreased from 66.5 kg, no change before the infusion), the body weight came out at 62.5 kg. The molecule also registered a urine volume in assay [1] (during the next 24 hours after levosimendan 0.05 microg/kg/min was added to furosemide and spironolactone) of 3500 mL. Further, the “urinary volumes (in words)” value in assay [2] (after the levosimendan infusion was added to diuretics) was “increased markedly”. In addition, the “dyspnea and peripheral oedema” value in assay [2] (during the next day after the levosimendan infusion was added) is given as “decreased”. Further, the daily urine volume in assay [2] (on the day after levosimendan infusion) came to 3800 mL; in assay [2] (on the day they received levosimendan (0.05 then 0.1 microg/kg/min, 24 h infusion) on top of furosemide and spironolactone), 6350 mL. For the same molecule, the “fluid balance (negative)” value in assay [3] (during the four next days after the infusion of levosimendan) stood at 8500 mL. Besides, the daily urinary volume in assay [3] (first consecutive day after levosimendan start, 2150-2730 ml before infusion) worked out at 3855 mL; in assay [3] (on the day levosimendan was started (bolus plus infusion up to 0.2 microg/kg/min, 24 h) on top of diuretics, 2150-2730 ml before infusion), 2650 mL; in assay [3] (second consecutive day after levosimendan start), 2890 mL; in assay [3] (third consecutive day after levosimendan start) it was 2790 mL.

These data come from US20080194567A1, “Combination Treatment for Enhancing Diuresis” (priority 2005, published 2008).
